In patent US20230065437A1, “ACIDIZING OF SUBTERRANEAN FORMATIONS WITH PLACEMENT OF SCALE INHIBITOR” (priority 2021, published 2023):
In brackets after ≈: the same amount, converted by molar mass.

What was measured:
[1] = cited from earlier work
[2] = Solubility of PMIDA in water and HCl at various temperatures and pressures; assay type: physicochemical; settings: for solubility thermodynamic: aqueous buffer, thermodynamic from solid
Source text: In certain embodiments, the organophosphorous compound comprising a phosphonoalkyl moiety is at least partially solubilized in the acid component. As used herein, the term “at least partially solubilized,” and grammatical variants thereof, with reference to the organophosphorous compound comprising a phosphonoalkyl moiety in the acid component refers to dissolution of at least about 2% weight per volume (w/v) of the organophosphorous compound comprising a phosphonoalkyl moiety in the acid component at room temperature. As used herein, the term “room temperature” refers to about 15° C. to about 25° C. The remaining excess organophosphorous compound comprising a phosphonoalkyl moiety may be suspended in the acid component while it is undergoing dynamic fluid flow at room temperature. As temperatures increase (e.g., as the treatment fluid is introduced into a subterranean formation and encounters downhole temperatures), the solubility of the organophosphorous compound comprising a phosphonoalkyl moiety in the acid component may increase. Indeed, the solubility of the organophosphorous compound comprising a phosphonoalkyl moiety increases as a function of acid concentration, and temperature.

Structure (SMILES) | pKa values [1] | solubility thermodynamic ([2]; 7.5% HCl, 37.8 °C, Atm., 100° F.) | solubility thermodynamic ([2]; 7.5% HCl, 65.6 °C, Atm., 150° F.) | solubility thermodynamic ([2]; 10% HCl, 37.8 °C, Atm., 100° F.) | solubility thermodynamic ([2]; 10% HCl, 65.6 °C, Atm., 150° F.) | solubility thermodynamic ([2]; 10% HCl, 93.3 °C, Atm., 200° F.) | solubility thermodynamic ([2]; 15% HCl, 37.8 °C, 200 psi, 100° F.) | solubility thermodynamic ([2]; 15% HCl, 37.8 °C, Atm., 100° F.) | solubility thermodynamic ([2]; 15% HCl, 65.6 °C, 200 psi, 150° F.) | solubility thermodynamic ([2]; 15% HCl, 65.6 °C, Atm., 150° F.) | solubility thermodynamic ([2]; 15% HCl, 93.3 °C, 200 psi, 200° F.) | solubility thermodynamic ([2]; 15% HCl, 93.3 °C, Atm., 200° F.) | Solubility Average ([2]; Atm., 7.5% HCl, 200° F.)
O=C(O)CN(CCO)CC(=O)O [HEIDA, N-(2-hydroxyethyl)iminodiacetic acid] | about 2.2 | – | – | – | – | – | – | – | – | – | – | – | –
O=C([O-])CC(NC(C(=O)[O-])C(O)C(=O)[O-])C(=O)[O-].[Na+].[Na+].[Na+].[Na+] (centres unmarked) [HIDS, tetrasodium 3-hydroxy-2,2′-iminodisuccinate] | about 2.83 | – | – | – | – | – | – | – | – | – | – | – | –
O=C(O)CN(CC(=O)O)CP(=O)(O)O [PMIDA, N-(phosphonomethyl)iminodiacetic acid] | – | 17.4 mg/mL (≈ 76.6 mM) | 39.7 mg/mL (≈ 175 mM) | 20 mg/mL (≈ 88.1 mM) | 49.1 mg/mL (≈ 216 mM) | 101 mg/mL (≈ 445 mM) | 41.1 mg/mL (≈ 181 mM) | 30.6 mg/mL (≈ 135 mM) | 95.7 mg/mL (≈ 421 mM) | 72.2 mg/mL (≈ 318 mM) | 203 mg/mL (≈ 896 mM) | 166 mg/mL (≈ 731 mM) | 10.00 w/v %
